# Assay results from the supplement of paper PMC10307832.
# Key:
# Test in all cases: relative viability (nuclei count vs DMSO), 5 days (fraction); higher = more cells survive
# Pemetrexed + Tozasertib = compound: Nc1nc2[nH]cc(CCc3ccc(C(=O)N[C@@H](CCC(=O)O)C(=O)O)cc3)c2c(=O)[nH]1 [Pemetrexed] + Cc1cc(Nc2cc(N3CCN(C)CC3)nc(Sc3ccc(NC(=O)C4CC4)cc3)n2)n[nH]1 [Tozasertib] (partner 0.1 µM)
# Procedure, shortened: (§1)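 Values are medians from duplicate plates. Each reflects relative viability, defined as the nuclei count of treated wells over that of vehicle wells. Lung cancer cell lines in 1536-well plates were pin-tool dosed one day after seeding with one drug alone or with a fixed anchor-drug dose plus five library-drug doses (not always all listed) in √10 steps, then fixed, stained and imaged at 4× after 5 days.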
# Pemetrexed + Lapatinib = compound: Nc1nc2[nH]cc(CCc3ccc(C(=O)N[C@@H](CCC(=O)O)C(=O)O)cc3)c2c(=O)[nH]1 [Pemetrexed] + CS(=O)(=O)CCNCc1ccc(-c2ccc3ncnc(Nc4ccc(OCc5cccc(F)c5)c(Cl)c4)c3c2)o1 [Lapatinib] (partner 2 µM)
# Procedure, shortened: as §1
# Idelalisib + Olaparib = compound: CC[C@H](Nc1ncnc2[nH]cnc12)c1nc2cccc(F)c2c(=O)n1-c1ccccc1 [Idelalisib] + O=C(c1cc(Cc2n[nH]c(=O)c3ccccc23)ccc1F)N1CCN(C(=O)C2CC2)CC1 [Olaparib] (partner 8 µM)
# Procedure, shortened: as §1
# Pemetrexed + Foretinib = compound: Nc1nc2[nH]cc(CCc3ccc(C(=O)N[C@@H](CCC(=O)O)C(=O)O)cc3)c2c(=O)[nH]1 [Pemetrexed] + COc1cc2c(Oc3ccc(NC(=O)C4(C(=O)Nc5ccc(F)cc5)CC4)cc3F)ccnc2cc1OCCCN1CCOCC1 [Foretinib] (partner 0.25 µM)
# Procedure, shortened: as §1
Cell Line,relative viability (Pemetrexed + Tozasertib; first compound 0.002 µM),relative viability (Pemetrexed + Tozasertib; first compound 0.006325 µM),relative viability (Pemetrexed + Tozasertib; first compound 0.02 µM),relative viability (Pemetrexed + Tozasertib; first compound 0.06325 µM),relative viability (Pemetrexed + Tozasertib; first compound 0.2 µM),relative viability (Pemetrexed + Lapatinib; first compound 0.002 µM),relative viability (Pemetrexed + Lapatinib; first compound 0.006325 µM),relative viability (Pemetrexed + Lapatinib; first compound 0.02 µM),relative viability (Pemetrexed + Lapatinib; first compound 0.06325 µM),relative viability (Pemetrexed + Lapatinib; first compound 0.2 µM),relative viability (Idelalisib + Olaparib; first compound 0.04 µM),relative viability (Idelalisib + Olaparib; first compound 0.1265 µM),relative viability (Idelalisib + Olaparib; first compound 0.4 µM),relative viability (Idelalisib + Olaparib; first compound 1.265 µM),relative viability (Idelalisib + Olaparib; first compound 4 µM),relative viability (Pemetrexed + Foretinib; first compound 0.002 µM),relative viability (Pemetrexed + Foretinib; first compound 0.006325 µM),relative viability (Pemetrexed + Foretinib; first compound 0.02 µM),relative viability (Pemetrexed + Foretinib; first compound 0.06325 µM),relative viability (Pemetrexed + Foretinib; first compound 0.2 µM)
201T,0.833,0.97,0.971,0.976,0.871,0.977,1.04,1.1,1.07,1,0.825,0.836,0.837,0.821,0.839,1.1,1.11,1.19,0.69,0.316
A549,–,–,–,–,–,0.841,0.947,1.13,0.987,0.973,0.238,0.28,0.236,0.266,0.361,0.935,0.902,1.08,1.02,0.925
A-427,0.232,0.2,0.213,0.509,0.218,0.974,1.06,1.09,1.14,0.819,0.853,0.788,0.712,0.785,0.711,0.994,1.02,1.08,0.961,0.929
ABC-1,0.163,0.172,0.172,0.191,0.167,1.35,1.16,1.25,1.05,1.16,0.947,0.913,0.78,0.97,0.68,1.26,0.927,1.01,0.992,1.08
BEN,0.547,0.423,0.57,0.548,0.457,0.811,0.594,0.817,0.663,0.624,1.02,0.955,1.02,1.12,0.847,0.739,0.739,0.83,0.615,0.726
CAL-12T,0.337,0.276,0.329,0.286,0.277,0.549,0.678,0.615,0.774,0.59,0.767,0.823,0.796,0.852,0.75,1.04,1.07,1.24,1.17,1.04
COR-L23,0.229,0.196,0.197,0.12,0.105,0.853,0.815,1.05,0.365,0.192,0.368,0.326,0.348,0.327,0.316,1.01,1.07,0.946,0.497,0.239
COR-L 105,0.431,0.332,0.31,0.366,0.338,0.404,0.389,0.375,0.406,0.315,0.628,0.638,0.656,0.715,0.666,0.97,1.16,1.17,1.15,1.24
